Measured values published in patent US20020159969A1, “Small peptide-based therapeutics for reversing cancer-associated MUC-1 mucin-induced immunosuppression” (priority 1997, published 2002).

Assays:
human T-cell cultures = test: Mixed lymphocyte reaction / T-cell proliferation (3H-thymidine incorporation) with affinity purified MUC-1 mucin; format: cell-based; details: purified MUC-1 mucin added to human T-cell cultures; FIG. 1
Protocol: The mixed lymphocyte reaction is conducted by mixing the lymphocytes of HLA disparate individuals in in vitro tissue cultures. The “responder population” in this experiment is purified T-cells from one population, while the “stimulator” population in this experiment is the peripheral blood lymphocytes obtained from an HLA mismatched individual donor. The two cell populations were mixed and cultured either in the presence or absence of various doses of B27.29 affinity purified MUC-1 mucin that was purified from a pleural effusion fluid. The results of this experiment are depicted in FIG. 1.
In the experiment depicted in FIG. 1, 10^6 T-cells were cultured in AIM V medium in presence of 10^6 allo-PBLs (mitomycin C treated) with or without the indicated concentration of affinity purified MUC1 or OSM for 6-7 days. At this time the T-cells were harvested and plated at 10^5/well in 96 well flat bottom plates and the polyclonal stimuli allo-PBLs (10^5/well), or anti-CD3 (1 μg/ml) or PHA (0.2 μg/ml), in presence or absence of MUC1 or OSM for 4 days. Each group was set up in a replicate of five wells. ^3H-thymidine (1 μCi/well) was added and the culture plates were further incubated for 18-24 h before harvesting. ^3H-thymidine incorporation into the DNA of proliferating T-cells was measured by liquid scintillation counting. […]

T cells = test: T cell proliferation assay with allo PBLs (3H-thymidine incorporation) with synthetic MUC-1 tandem repeat peptides; format: cell-based, human; details: peptide 10 μg/ml, 6-7 days then 5 days, FIG. 2
Protocol: Enriched T cell populations were purified from buffy coats obtained from normal red cross donors using nylon wool columns by previously reported procedures. […] For the allo MLR, mitomycin C treated allogeneic PBLs were co-cultured with purified T cells in the presence or absence of affinity purified MUC-1 mucin or control OSM. In most of the experiments, the T cells were cultured 6-7 days in AIM V medium in the absence or presence of MUC-1, MUC-1 derivative or OSM at the indicated concentration. After this time, the T cells were harvested, washed and cultured as indicated.
For the experiment depicted in FIG. 2, purified T cells (10^6/ml) were cultured in AIM V medium with allo PBLs in the absence or presence of MUC-1, MUC-1 derivative or OSM 10 μg/ml for 6-7 days. T cells were harvested and plated in 96 well flat bottom plates at 10^5/well with allo PBLs (10^5/well), in the presence or absence of affinity purified MUC-1, MUC-1 derivative or OSM. Control cultures were treated with either 50 U/ml IL-2 or 1 μg/ml anti-CD28 Mab. After 4 days of culture, ^3H-thymidine (1 μCi/well) was added. The cells were harvested on the fifth day and ^3H-thymidine incorporation was measured by liquid scintillation.

T-cells = test: Relief of 100 mer MUC1 peptide-induced suppression/anergy of T-cell proliferation (allo-PBLs, 3H-thymidine incorporation); format: cell-based, human; details: 100 mer MUC1 peptide 25 μg/ml; 16 mer at varying doses; FIG. 3
Protocol: In the experiment of FIG. 3, purified T-cells (10^6/ml) were cultured in AIM V medium with allo-PBLs in the presence (100 mer MUC1 peptide group; right panel) or absence (media group; left panel) of 100 mer MUC1 synthetic peptide (25 μg/ml) for 6-7 days. At this time, the T-cells were harvested and plated in 96 well flat bottom plates at 10^5/well with allo-PBLs (10^5/well) in the presence or absence of 100 mer MUC1 peptide (25 μg/ml), and the 16 mer MUC1 peptide (less than one tandem repeat) at varying doses. The wells were pulsed with ^3H-thymidine (1 μCi/well) on the fourth day of culture followed by harvesting on the fifth day. ^3H-Thymidine incorporation into the DNA of proliferating T-cells was measured by liquid scintillation counter. Data are shown as mean CPM±standard deviations. Each group was set up in replicates of 3 wells.

| Substance | T-cell proliferation against allo-antigenic (or mitogenic) stimulus in vitro (human T-cell cultures) | level of T cell proliferation relative to control (T cells) | reversal of suppression/anergy induced by a MUC-1 100-mer peptide (T-cells) |
| --- | --- | --- | --- |
| purified human MUC-1 mucin: B27.29 affinity purified MUC-1 mucin glycoprotein from cancer patient pleural effusion/ascites fluid | strongly inhibits | – | – |
| GVTSAPDTRPAPGSTA [BP16] | – | not observed | reverses |
